“And” between values parts separate entries of the source, which are not always exact repeats. Identical values can stand only once.
Key:
alcalase [1] = target: T1, alcalase (Bacillus licheniformis, UniProt P00780); assay: Nucleophile screening for alcalase catalyzed deacetylation of SOA in diisopropyl ether; assay type: biochemical
T1 construct: purchased Novo Nordisk (gift)
T1 sequence (P00780 106-379): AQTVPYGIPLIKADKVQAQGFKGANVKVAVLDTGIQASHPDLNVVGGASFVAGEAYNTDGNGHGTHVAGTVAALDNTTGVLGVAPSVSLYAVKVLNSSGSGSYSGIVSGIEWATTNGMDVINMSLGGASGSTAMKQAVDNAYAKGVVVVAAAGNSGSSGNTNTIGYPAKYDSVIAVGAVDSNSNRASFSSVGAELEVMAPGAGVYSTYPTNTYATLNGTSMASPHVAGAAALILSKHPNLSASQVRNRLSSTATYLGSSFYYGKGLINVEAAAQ
Description: (§1) Nucleophile screening for alcalase, proleather or lipase AP 12 catalyzed deacetylation of SOA. A scintillation vial was charged successively with 100 mg of powdered enzyme prepared as described, 1.0 ml of 20 mM sucrose octaacetate (SOA) and 200 mM of the nucleophile dissolved in diisopropyl ether. Following a 5 sec sonication, the vial was incubated in a controlled-temperature shaker at 45° C. and 300 RPM for 66 hrs. A 200 μl aliquot of the reaction mixture was withdrawn and centrifuged. The supernatant was collected and evaporated under a stream of N2. The residue was reconstituted in 200 μl of acetonitrile and 10 μl of this solution was analyzed by HPLC. For screening concentration effects on enzyme activity, the same protocol was followed except the nucleophile concentration was varied from 0 to 2000 mM.

proleather [2] = assay: Nucleophile screening for proleather catalyzed deacetylation of SOA in diisopropyl ether; assay type: biochemical, Bacillus subtilis; conditions: for % conv: 66 hrs
Description: as §1

lipase AP 12 [3] = assay: Nucleophile screening for lipase AP 12 catalyzed deacetylation of SOA in diisopropyl ether; assay type: biochemical, Aspergillus niger; conditions: for % conv: 66 hrs
Description: as §1

lipase AY 30 [4] = assay: Effect of the solvent on lipase AY 30 SOA deacetylation; assay type: biochemical, Candida cylindracea; conditions: lipase AY 30, solvent as labelled, 24 hrs
Description: (§2) Identical enzyme catalyzed SOA deacetylations were run in numerous anhydrous solvents. After 24 hrs incubation an aliquot was analyzed by HPLC.
(§3) Enzyme and Solvent Screening for SOA Deacetylation. A scintillation vial was charged successively with 100 mg of powdered enzyme as received or prepared as described and 1.0 ml of 20 mM sucrose octaacetate (SOA) dissolved in an organic solvent. Following a 5 sec sonication, the vial was incubated in a controlled-temperature shaker at 45° C. and 300 RPM for 24 hrs. A 200 μl aliquot of the reaction mixture was withdrawn and centrifuged. The supernatant was collected and evaporated under a stream of N2. The residue was reconstituted in 200 μl of acetonitrile and 10 μl of this solution was analyzed by HPLC.

alcalase [5] = target: T1, alcalase; assay: Solvent effect on alcalase catalyzed deacetylation of SOA; assay type: biochemical; conditions: 24 hrs; for SheptaA: total of 1'-OH and 6'-OH heptaacetates; for SOA / ShexaA: solvent as labelled
Description: as §2
Enzyme Precipitation. Alcalase was prepared by adding 37.5 ml cold acetone (-20° C.) to 25 ml of alcalase solution as supplied by Novo. The aqueous acetone was decanted and the residue dissolved in 25 ml of pH 9.0 glycine--NaOH buffer. The pH of this solution was adjusted to 9.0 with a few drops of dilute NaOH solution. Cold acetone (37.5 ml at -20° C.) was added to the buffered alcalase solution and the precipitate collected by filtration on a medium porosity glass funnel and dried overnight at 2 millitorr. The resulting pellet was ground to a fine powder and stored at 4° C. over saturated aqueous potassium carbonate (RH: 43%) for 24 hrs.
as §3

lipase AP 12 [6] = assay: Solvent effect on lipase AP 12 catalyzed deacetylation of SOA; assay type: biochemical, Aspergillus niger; conditions: lipase AP 12, solvent as labelled, 24 hrs
Description: as §2
(§4) The pH of commercial powdered enzymes was adjusted in the following way: The enzyme (3 g) was dissolved in 25 ml of an appropriate buffer and the pH adjusted with dilute NaOH or citric/phosphoric acid solution. Cold acetone (37.5 ml at -20° C.) was added and the precipitate collected on a medium porosity glass funnel and dried overnight at 2 millitorr. The protein pellet was ground to a fine powder and equilibrated at 4° C. over saturated aqueous potassium carbonate (RH: 43%) for 24 hrs.
as §3

proleather [7] = assay: Solvent effect on proleather catalyzed deacetylation of SOA; assay type: biochemical, Bacillus subtilis; conditions: 24 hrs; for SheptaA: total of 1'-OH and 6'-OH heptaacetates; for SOA / ShexaA: solvent as labelled
Description: as §2, §4, §3

[8] = test system: alcalase deposited on Hyflo Super Cell; assay: Solvent effect on alcalase deposited on Hyflo Super Cell catalyzed deacetylation of SOA; assay type: biochemical, Bacillus licheniformis; conditions: immobilized alcalase, 4 hour incubation; for SheptaA: total of 1'-OH and 6'-OH heptaacetates
Description: (§5) Alcalase and lipase AY 30 were deposited on Hyflo Super Cell and used as catalysts for SOA deacetylation reactions in several anhydrous solvents.
(§6) Enzyme immobilization. The pH of a solution of 900 mg of buffered alcalase in 18 ml of water was adjusted to 9.0 with dilute NaOH. Hyflo super cell (6 g) was added and the slurry thoroughly mixed. […] Lipase AY 30 was immobilized in the same manner except that the protein solution was adjusted to pH 7.0 with sodium phosphate.
as §3, with “Following a 5 sec sonication, the vial was incubated in a controlled-temperature shaker at 45° C. and 300 RPM for 24 hrs.” left out

[9] = test system: lipase AY 30 deposited on Hyflo Super Cell; assay: Solvent effect on lipase AY 30 deposited on Hyflo Super Cell catalyzed deacetylation of SOA; assay type: biochemical, Candida cylindracea; conditions: immobilized lipase AY 30, 24 hrs
Description: as §5, §6, §3

lipase AY 30 [10] = assay: Effect of the solvent on lipase AY 30 catalyzed deacylation of SOP; assay type: biochemical, Candida cylindracea; as to SheptaP's ([…]): HPLC peak 8.2 min
Description: Identical SOP deacylations were performed with lipase AY 30 or protease type XXIII in numerous anhydrous organic solvents, as shown in Tables 12 and 13.
as §3, with “Solvent” for “Enzyme and Solvent”, “screening” for “Screening”, “SOP deacylation.” for “SOA Deacetylation.”, “lipase AY 30” for “powdered enzyme as received”, “protease type XXIII” for “prepared”, “octapropionate (SOP) and 200mM butanol” for “octaacetate (SOA)”

[11] = n-octanol/water; from Laane et al.; cited from earlier work
[12] = methanol 20 mM, peak height ratio
[13] = methanol 50 mM, peak height ratio
[14] = methanol 100 mM, peak height ratio
[15] = methanol 200 mM (Table 10), peak height ratio
[16] = methanol 500 mM, peak height ratio
[17] = methanol 1000 mM, peak height ratio
[18] = methanol 2000 mM, peak height ratio
[19] = nucleophile 200 mM, peak height ratio 1'-OH / 6'-OH heptaacetate
[20] = lipase AP 12, nucleophile 200 mM

With CO [methanol] the “increase in conversion relative to reaction with no added nucleophile” value (alcalase [1]; 200 mM) was “at least 25%”, the “enhancement in overall conversion” value (alcalase [1]; 0.5M methanol, in words) was “modest enhancements in overall conversion” and the regiochem (alcalase [1]; [12]) was 7.4. It also gave a regiochem (alcalase [1]; [13]) of 8.3, a regiochem (alcalase [1]; [14]) of 8.1 and a regiochem (alcalase [1]; [15]) of 8.6. It also gave a regiochem (alcalase [1]; [16]) of 8.2, a regiochem (alcalase [1]; [17]) of 5.6 and a regiochem (alcalase [1]; [18]) of 7.1. The regiochem (alcalase [1]; [19]) was 8.6, the increase in conversion (proleather [2]; 1.0M methanol) was 120% and the “% conv” value (proleather [2]; methanol 20 mM) was 38.1%. For the same compound, the regiochem (proleather [2]; [12]) was 4.8, the “% conv” value (proleather [2]; methanol 50 mM) was 41.2% and the regiochem (proleather [2]; [13]) was 5.9. For the same compound, the “% conv” value (proleather [2]; methanol 100 mM) was 44.6%, the regiochem (proleather [2]; [14]) was 6.6 and the “% conv” value (proleather [2]; methanol 200 mM (Table 10)) was 49.4%. The regiochem (proleather [2]; [15]) was 7.9, the “% conv” value (proleather [2]; methanol 500 mM) was 65.4% and the regiochem (proleather [2]; [16]) was 12.4. The “% conv” value (proleather [2]; methanol 1000 mM) was 71.1%, the regiochem (proleather [2]; [17]) was 12.6 and the “% conv” value (proleather [2]; methanol 2000 mM) was 66.8%. The regiochem (proleather [2]; [18]) was 11.5, the “% conv” value (proleather [2]; nucleophile 200 mM) was 53.8% and the regiochem (proleather [2]; [19]) was 8.4. For the same compound, the “enhancement in overall conversion” value (lipase AP 12 [3]; lipase AP 12, 1.0M methanol, in words) was “modest enhancements in overall conversion”, the “% conv” value (lipase AP 12 [3]; lipase AP 12, methanol 20 mM) was 22.4% and the “% conv” value (lipase AP 12 [3]; lipase AP 12, methanol 50 mM) was 23.5%. For the same compound, the “% conv” value (lipase AP 12 [3]; lipase AP 12, methanol 100 mM) was 25.7%, the “% conv” value (lipase AP 12 [3]; lipase AP 12, methanol 200 mM (Table 10)) was 24.0% and the “% conv” value (lipase AP 12 [3]; lipase AP 12, methanol 500 mM) was 31.3%. The “% conv” value (lipase AP 12 [3]; lipase AP 12, methanol 1000 mM) was 33.4%, the “% conv” value (lipase AP 12 [3]; lipase AP 12, methanol 2000 mM) was 21.3% and the “% conv” value (lipase AP 12 [3]; [20]) was 28.2%.

In the case of OCc1ccccc1 [benzyl alcohol], the regiochem (alcalase [1]; [19]) is reported as 8.1, the “% conv” value (proleather [2]; nucleophile 200 mM) is reported as 46.8% and the regiochem (proleather [2]; [19]) is reported as 6.6. The “% conv” value (lipase AP 12 [3]; [20]) was 22.5%.

In the case of OCCC1CCCCN1 (centres unmarked) [2-piperidineethanol], the regiochem (alcalase [1]; [19]) is reported as 8.6, the “% conv” value (proleather [2]; nucleophile 200 mM) is reported as 41.3% and the regiochem (proleather [2]; [19]) is reported as 5.1. For the same compound, the “% conv” value (lipase AP 12 [3]; [20]) was 10.4%.

ClC(Cl)(Cl)Cl [CCl4, carbon tetrachloride] showed an SOA (lipase AY 30 [4]) of 86.9%, a SheptaA (lipase AY 30 [4]) of 10.4% and a ShexaA (lipase AY 30 [4]) of 2.7%. It also gave a SheptaA (alcalase [5]) of 5.2%, an SOA (alcalase [5]) of 94.8% and a ShexaA (alcalase [5]) of 0%. The SOA (lipase AP 12 [6]) was 95.1%, the SheptaA (lipase AP 12 [6]) was 4.3% and the ShexaA (lipase AP 12 [6]) was 0.6%. For the same compound, the SheptaA (proleather [7]) was 9.6%, the SOA (proleather [7]) was 89.1% and the ShexaA (proleather [7]) was 1.3%. It also gave an SOA [8] of 98.6%, a ShexaA [8] of 0% and a SheptaA [8] of 1.4%. For the same compound, the SOA [9] was 97.5%, the SheptaA [9] was 2.5% and the “ShexaP (4.2 min)” value (lipase AY 30 [10]; lipase AY 30, 24 hrs, HPLC peak 4.2 min) was 0%. For the same compound, the “SheptaP's (8.9 min)” value (lipase AY 30 [10]; lipase AY 30, 24 hrs, HPLC peak 8.9 min) was 0%, the “SheptaP's (9.4 min)” value (lipase AY 30 [10]; lipase AY 30, 24 hrs, HPLC peak 9.4 min) was 0.7% and the “SheptaP's ([…])” value (lipase AY 30 [10]; lipase AY 30, 24 hrs, HPLC peak […]) was 1.1%. The SOA (lipase AY 30 [10]; lipase AY 30, solvent as labelled, 200 mM butanol, 24 hrs, peak 21.4 min) was 98.2% and the “log P” value [11] was 3.0 and 3.1.

For CCCOCCC [dipropyl ether], the SOA (lipase AY 30 [4]) was 51.6%, the SheptaA (lipase AY 30 [4]) was 32.4% and the ShexaA (lipase AY 30 [4]) was 16.0%. It also gave a SheptaA (alcalase [5]) of 14.5%, an SOA (alcalase [5]) of 83.9% and a ShexaA (alcalase [5]) of 1.6%. It also gave an SOA (lipase AP 12 [6]) of 81.8%, a SheptaA (lipase AP 12 [6]) of 15.9% and a ShexaA (lipase AP 12 [6]) of 2.3%. It also gave a SheptaA (proleather [7]) of 21.5%, an SOA (proleather [7]) of 75.2% and a ShexaA (proleather [7]) of 3.3%. The SOA [8] was 92.9%, the ShexaA [8] was 0.6% and the SheptaA [8] was 6.5%. The SOA [9] was 93.4%, the SheptaA [9] was 6.6% and the “log P” value [11] was 1.9.

In the case of CCCCO [butanol, n-butanol], the regiochem (alcalase [1]; [19]) is reported as 7.4, the “% conv” value (proleather [2]; nucleophile 200 mM) is reported as 44.4% and the regiochem (proleather [2]; [19]) is reported as 4.8. The “% conv” value (lipase AP 12 [3]; [20]) was 25.7%.

From patent US5445951A, “Regioselective enzymatic deacylation of sucrose esters in anhydrous organic media” (priority 1993, dated 1995)
